Assay results published in patent publication US9572794B2, “Substituted indoles as selective protease activated receptor 4 (PAR-4) antagonists” (Vanderbilt University, priority 2014, dated 2017).

Target: T1, PAR4 (Homo sapiens, UniProt Q96RI0)
T1 construct: 60 μL of washed platelets (Tyrodes buffer containing 0.1% BSA); endogenous in cells
T1 sequence (Q96RI0 18-385): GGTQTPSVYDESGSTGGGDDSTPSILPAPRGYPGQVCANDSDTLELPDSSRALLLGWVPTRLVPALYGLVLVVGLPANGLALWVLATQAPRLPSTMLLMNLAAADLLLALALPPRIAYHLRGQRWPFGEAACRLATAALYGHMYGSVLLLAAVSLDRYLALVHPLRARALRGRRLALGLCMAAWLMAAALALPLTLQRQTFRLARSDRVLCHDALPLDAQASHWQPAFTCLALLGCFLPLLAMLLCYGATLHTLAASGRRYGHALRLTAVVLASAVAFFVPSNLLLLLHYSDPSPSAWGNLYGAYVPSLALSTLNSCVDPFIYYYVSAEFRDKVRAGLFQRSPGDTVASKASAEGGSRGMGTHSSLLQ
Assay: PAC-1 Binding assay (antagonism of PAR4 mediated αIIBβ3 activation, flow cytometry)
Type: cell-based
Conditions: for % Max PAC-1: washed platelets, 100% response = DMSO treated control stimulated with 200 μM PAR4-AP, mean values; for IC50: washed platelets stimulated with PAR4-AP, PAC-1 binding, sigmoidal dose response, variable slope
Experimental: PAC-1 Binding assay: 60 μL of washed platelets (Tyrodes buffer containing 0.1% BSA) at a concentration of 0.15×10^8 platelets/mL were added to 5 mL round bottom polystyrene tubes (BD, Franklin Lakes, N.J.). FITC conjugated PAC-1 (BD Biosciences, San Jose, Calif.) antibody was diluted (to the manufacturers recommended concentration) in Tyrode's buffer containing 0.1% BSA. 40 μL of diluted antibody was added to the platelets and allowed to incubate for 5 minutes. Platelets were pre-treated with indicated concentrations of antagonist or DMSO control for 5 minutes followed by addition of PAR1-AP (GL Biochem, Shanghai, China) or PAR4-AP for 10 minutes. […] The final DMSO concentration was 0.5%. Platelets were stored up to 18 hours at 4° C. before flow cytometric analysis. Analysis was carried out on a BD FACS Canto II (Franklin Lakes, N.J.). Fluorescent intensity was determined for 100,000 events within the platelet gate. Data was collected and analyzed via FACS DiVa software. Flow cytometric data analysis was conducted by the following method. The DMSO-vehicle treated control was subtracted from each data point. 100% response for PAR4-AP was determined for each individual as the DMSO treated control stimulated with either 200 μM PAR4-AP, or 20 μM PAR1-AP. Data was plotted in GraphPad PRISM v.5.0. For compounds with a notable reduction in PAC-1 binding response, dose response curves and IC50 values were generated using the inhibitory sigmoidal dose response ‘variable slope’ parameter. PAR4 results are plotted as mean values.

% Max PAC-1 [%]	IC50 [nM]	SMILES
80.6		COc1ccc(-c2c(CO)n(Cc3cccc(F)c3)c3ccc(OC(F)(F)F)cc23)cn1 [Example B1]
19.7	823	COc1ccc(-c2c(CO)n(Cc3ccc(F)cc3F)c3ccc(OC(F)(F)F)cc23)cn1 [Example B2]
59.7		COc1ccc(-c2c(CO)n(Cc3cccc(C(F)(F)F)c3)c3ccc(OC(F)(F)F)cc23)cn1 [Example B3]
53.4		COc1ccc(-c2c(CO)n(Cc3ccccc3)c3ccc(OC(F)(F)F)cc23)cn1 [Example B4]
36.5		COc1ccc(-c2c(CO)n(Cc3cc(F)cc(F)c3)c3ccc(OC(F)(F)F)cc23)cn1 [Example B5]
89.0		COc1ccc(-c2c(CO)n(Cc3ccccc3F)c3ccc(OC(F)(F)F)cc23)cn1 [Example B6]
27.2		COc1ccc(-c2c(CO)n(Cc3cccc(Br)c3)c3ccc(OC(F)(F)F)cc23)cn1 [Example B7]
93.9		COc1ccc(-c2c(CO)n(C)c3ccc(OC(F)(F)F)cc23)cn1 [Example B8]
110.6		COc1cc(Cn2c(CO)c(-c3ccc(OC)nc3)c3cc(OC(F)(F)F)ccc32)cc(OC)c1 [Example B10]
40.9		COc1cccc(Cn2c(CO)c(-c3ccc(OC)nc3)c3cc(OC(F)(F)F)ccc32)c1 [Example B11]
27.8		COc1ccc(-c2c(CO)n(Cc3cccc(Cl)c3)c3ccc(OC(F)(F)F)cc23)cn1 [Example B12]
108.5		COc1cccc(Cn2c(CO)c(-c3ccc(OC)nc3)c3cc(C(F)(F)F)ccc32)c1 [Example B13, (1-(3-methoxybenzyl)-3-(6-methoxypyridin-3-yl)-5-(trifluoromethyl)-1H-indol-2-yl)methanol]
74.3		COc1ccc(-c2c(CO)n(Cc3cccc(Br)c3)c3ccc(S(C)(=O)=O)cc23)cn1 [Example B21]
113.7		COc1ccc(-c2c(CO)n(Cc3ccccn3)c3ccc(C#N)cc23)cn1 [Example B26]
100.1		COc1ccc(-c2c(CO)n(Cc3ccccn3)c3ccc(S(C)(=O)=O)cc23)cn1 [Example B27]
109.1		COc1ccc(-c2c(CO)n(Cc3cccc(Br)c3)c3ccc(C#N)cc23)cn1 [Example B31]
105.0		COc1ccc(-c2c(CO)n(Cc3ccc(F)cc3F)c3ccc(C#N)cc23)cn1 [Example B33]
108.8		COc1ccc(-c2c(CO)n(Cc3ccc(C#N)cc3F)c3ccc(C#N)cc23)cn1 [Example B36]
107.2		COc1ccc(-c2c(CO)n(Cc3ccccn3)c3cc4c(cc23)OCO4)cn1 [Example B38]
100.1		COc1ccc(-c2c(CO)n(Cc3cccc(Cl)c3)c3cc4c(cc23)OCO4)cn1 [Example B39]
98.6		COc1ccc(-c2c(CO)n(Cc3ccc(C#N)cc3F)c3cc4c(cc23)OCO4)cn1 [Example B40]
96.5		COc1ccc(-c2c(CO)n(Cc3cccc(Br)c3)c3cc4c(cc23)OCO4)cn1 [Example B44]
129.1		COc1cccc(Cn2c(CO)c(-c3ccc(OC)nc3)c3cc4c(cc32)OCO4)c1 [Example B45]
101.7		OCc1c(-c2ccncc2)c2cc(OC(F)(F)F)ccc2n1Cc1ccccc1Cl [Example B47]
14.5	1980	CSc1ncc(-c2c(CO)n(Cc3ccc(F)cc3F)c3ccc(OC(F)(F)F)cc23)cn1 [Example B48]
96.0		OCc1c(-c2cncnc2)c2cc(OC(F)(F)F)ccc2n1Cc1ccc(F)cc1F [Example B49]

% Max PAC-1 [%]	IC50 [nM]	SMILES
48.5		CCOc1ncc(-c2c(CO)n(Cc3ccc(F)cc3F)c3ccc(OC(F)(F)F)cc23)cn1 [Example B51]
24.0		CCOc1ncc(-c2c(CO)n(Cc3ccccc3Cl)c3ccc(OC(F)(F)F)cc23)cn1 [Example B52]
48.2		OCc1c(-c2ccc(F)nc2)c2cc(OC(F)(F)F)ccc2n1Cc1ccc(F)cc1F [Example B53]
2.01	2900	COc1ncc(-c2c(CO)n(Cc3ccccc3Cl)c3ccc(OC(F)(F)F)cc23)cn1 [Example B54]
101.8		OCc1c(-c2cncnc2)c2cc(OC(F)(F)F)ccc2n1Cc1ccccc1Cl [Example B55]
53.7	> 10000	COc1ncc(-c2c(CO)n(Cc3ccc(F)cc3F)c3ccc(OC(F)(F)F)cc23)cn1 [Example B56]
21.05	1290	OCc1c(-c2ccc(F)nc2)c2cc(OC(F)(F)F)ccc2n1Cc1ccccc1Cl [Example B57]
102.2		OCc1c(-c2ccncc2)c2cc(OC(F)(F)F)ccc2n1Cc1ccc(F)cc1F [Example B58]
4.31	1350	COc1ccc2c(-c3ccc(OC)nc3)c(CO)n(Cc3ccccc3Cl)c2c1 [Example B59]
21.33	4300	COc1ccc2c(-c3cnc(SC)nc3)c(CO)n(Cc3ccccc3Cl)c2c1 [Example B60]
19.78	3840	CCOc1ccc2c(-c3ccc(OC)nc3)c(CO)n(Cc3ccccc3Cl)c2c1 [Example B61]
34.32	3710	COc1ccc(-c2c(CO)n(Cc3ccccc3)c3cc(OC(F)(F)F)ccc23)cn1 [Example B62]
14.77	2150	CCOc1ccc2c(-c3cnc(SC)nc3)c(CO)n(Cc3ccccc3Cl)c2c1 [Example B63]
18.53	1380	CSc1ncc(-c2c(CO)n(Cc3ccccc3Cl)c3cc(OC(C)C)ccc23)cn1 [Example B64]
12.25	966	COc1ccc(-c2c(CO)n(Cc3ccccc3Cl)c3cc(OC(F)(F)F)ccc23)cn1 [Example B65]
59.45		COc1ccc(-c2c(CO)n(Cc3ccccc3Cl)c3cc(OC(C)C)ccc23)cn1 [Example B66]
116.1		COc1ccc(-c2c(CO)[nH]c3ccc(OC(F)(F)F)cc23)cn1 [Example B67]
61.98		COc1ccc(-c2c(CO)n(Cc3csc(-c4ccccc4)n3)c3ccc(OC(F)(F)F)cc23)cn1 [Example B68]
89.19		COc1ccc(-c2c(CO)n(CC3CSC(c4ccccc4)=N3)c3ccc(OC(F)(F)F)cc23)cn1 (stereo not drawn) [Example B69]
61.82		COc1ccc(-c2c(COCc3csc(-c4ccccc4)n3)n(Cc3csc(-c4ccccc4)n3)c3ccc(OC(F)(F)F)cc23)cn1 [Example B70]
5.57	162	CSc1ncc(-c2c(CO)n(Cc3ccccc3Cl)c3cc(OC(F)(F)F)ccc23)cn1 [Example B71]
81.76		COc1ccc(-c2c(CO)n(Cc3ccccc3)c3cc(OC(C)C)ccc23)cn1 [Example B72]
107.63		CSc1ccc(-c2c(CO)n(Cc3ccccc3Cl)c3ccc(OC(F)(F)F)cc23)cc1 [Example B73]
38.32		COc1nn2cc(-c3c(CO)n(Cc4csc(-c5ccccc5)n4)c4ccc(OC(F)(F)F)cc34)nc2s1 [Example B74]
8.40	184	COc1nn2cc(-c3c(CO)n(Cc4ccccc4Cl)c4ccc(OC(F)(F)F)cc34)nc2s1 [Example B75, (1-(2-chlorobenzyl)-3-(2-methoxyimidazo[2,1-b][1,3,4]thiadiazol-6-yl)-5-(trifluoromethoxy)-1H-indol-2-yl)methanol]
79.22		CSc1ccc(-c2c(CO)n(Cc3ccccc3Cl)c3ccc(OC(F)(F)F)cc23)cn1 [Example B76]
